Data as given in article PMC6327263, “Evaluation of Novel 3-Hydroxyflavone Analogues as HDAC Inhibitors against Colorectal Cancer” (Advances in Pharmacological Sciences, 2018).
Several values for one entry are separate records, joined by “and”; a condition that tells them apart may be missing. Equal values may be shown once. Marks after values point to notes of the source that are not given here.

Assays:
VERO cells = assay: MTT cytotoxicity assay, Vero; format: cell-based, African green monkey; details: Chlorocebus sabaeus, 48 h, mean ± SEM of three experiments
Procedure: (§1) Human colorectal carcinoma cell line (HCT116) and African green monkey kidney epithelial cells (VERO) were obtained from National Centre for Cell Science, Pune, MH, India. For their maintenance, the cells were grown in Dulbecco's Modified Eagle's Medium (DMEM) which was supplemented with 10% fetal bovine serum (FBS) and 1 × penicillin/streptomycin at 37°C in CO2 incubator (NU-5501E/G, NuAire Inc., Plymouth, MN, USA) in a humidified atmosphere of 5% CO2 and 95% air.
(§2) Cytotoxicity for the synthesized analogues was determined using MTT assay. In brief, HCT116 and VERO cells were harvested from the tissue culture flask and seeded in sterile 96 well plates at a density of 5000 cells per well. After overnight adherence, different concentrations of test compounds were added and incubated for 48 h. Next, 50 µl of the MTT reagent (HiMedia Laboratories, Mumbai, India) (2 mg/ml in the sterile phosphate buffer saline (PBS)) was added into each well and incubated for 3 h. The formazan crystals formed were solubilized using 100% dimethyl sulfoxide (DMSO), and the optical density was measured at 540 nm using the microplate reader (ELx800, BioTek Instruments Inc., Winooski, VT, USA).

HCT116 cells [1] = assay: MTT cytotoxicity assay, HCT116; format: cell-based, human; details: Homo sapiens, HCT-116, 48 h, mean ± SEM of three experiments
Procedure: as §1, §2

[2] = test system: HDAC enzyme in HCT116 cells; assay: Whole cell HDAC inhibition assay; format: cell-based; details: Homo sapiens, HCT-116, HCT116, 18 h treatment, mean ± SEM of three experiments
Procedure: Confluent HCT116 cells were harvested and seeded in 96 well sterile black well plates at a density of 2000 cells per well and incubated overnight. Furthermore, the cells were treated with different concentrations of test compounds for a period of 18 h followed by the addition of […] BOC-Ac-Lys-AMC substrate and incubated for 1 h. […] The reaction was then allowed to proceed for 15 min at 37°C. Finally, the fluorescence intensity was measured at 360 nm excitation and 460 nm emission using a fluorescence microplate reader (FLx800, BioTek Instruments Inc., Winooski, VT, USA).

DMH-induced colon cancer = format: in vivo, Wistar rats; details: 5-FU 10 mg/kg i.p.
Procedure: The two test compounds (QMJ-2 and QMJ-5) and quercetin were suspended in 0.25% w/v sodium carboxymethyl cellulose (CMC) and were administered orally (p.o.). 5-Fluorouracil (5-FU) which was used as a standard was procured in the form of injection and was administered intraperitonially (i.p.).
Colon cancer in experimental animals was induced using the highly specific carcinogen DMH, with few modifications from the previously described procedure. DMH was administered at a dose of 30 mg/kg i.p. once a week for 20 weeks. The incidence of aberrant crypt foci (ACF) and adenocarcinoma were confirmed by sacrificing few animals after 20 weeks of induction with DMH. Furthermore, the animals were randomized into five experimental groups, and various treatments were administered for a period of 21 days followed by the assessment of different parameters in the experimental animals.
(1) Experimental Groups • Group 1: animals received 0.25% CMC in water p.o. • Group 2: animals received 0.25% CMC in water p.o. (DMH control) • Group 3: animals received 5-FU at 10 mg/kg i.p. • Group 4: animals received quercetin at 100 mg/kg p.o. • Group 5: animals received QMJ-2 at 100 mg/kg p.o. • Group 6: animals received QMJ-5 at 100 mg/kg p.o.
(2) ACF Formation and Adenocarcinoma Incidence. The entire colon was excised from the experimental animals and was used to study the incidence of adenocarcinoma. The count and size were noted from each animal. For ACF formation, the distal part of the colon was excised, and the tissue was then cut open and fixed with 10% buffered formalin for 12 h. Following this, the tissue was stained with 0.1% methylene blue in PBS for 5 min. The tissues were then observed under microscope for ACF formation and were calculated as the number of counts/5 cm^2 in colon tissue.
(3) Colon Weight/Length Ratio and Organ Index. Length of the excised colon was measured in centimeters, and weight was measured in g. Colon weight/length ratio was then calculated. For the determination of organ index, major organs including spleen, liver, and kidney of the experimental animals were weighed in g and the respective index was calculated. […]

HCT116 cells [3] = assay: Cell cycle analysis; format: cell-based, human; details: HCT116, 48 h; SAHA 5 µM, quercetin 100 µM, QMJ-2 100 µM, QMJ-5 50 µM; normal control 29.2%
Procedure: Cell cycle analysis was performed to estimate the effect of synthesized analogues on the different phases of the cell cycle. In brief, 1 × 10^6 cells were seeded in the cell culture dish and allowed to attach overnight followed by incubation with test compounds. After 48 h, the cells were detached by trypsinization, centrifuged, and washed with PBS. The cell pellets were fixed in 70% v/v ice cold ethanol and stored at −20°C for 24 h. After fixing, the pellets were dislodged in PBS and stained with propidium iodide solution and analyzed using Accuri C6 flow cytometer (BD Biosciences, San Jose, CA, USA).

HDAC8 = assay: Western blotting, HDAC8 expression; format: cell-based, human; details: HCT116 cells, 24 h, compared to normal control
Procedure: (§3) After various treatments for 24 h, cells were lysed, and protein quantification of the lysates was estimated using the BCA™ kit (Thermo Fisher Scientific Inc., Waltham, MA, USA). Proteins samples (30 µg) were resolved on a 10% SDS-PAGE and transferred onto a PVDF membrane and blocked with 5% nonfat milk in TBST (tris-buffered saline with Tween-20) buffer for 1 h followed by washing in TBST buffer. The membrane was then probed with primary antibodies (GAPDH, HDAC8, p21^Waf1/Cip1, and acetyl-histone H3[Ac-Lys^9]) and incubated overnight at 4°C. The membrane was washed with TBST buffer and incubated with horseradish peroxidase-conjugated secondary antibody for 1 h at room temperature. Signal was captured using SuperSignal™ West Pico Plus chemiluminescent substrate (Thermo Fischer Scientific Inc., Waltham, MA, USA) on gel documentation system (G : BOX Chemi XRQ, Syngene).

p21^Waf1/Cip1 = assay: Western blotting, p21Waf1/Cip1 expression; format: cell-based, human; details: HCT116 cells, 24 h, compared to normal control
Procedure: as §3

HCT116 cells [4] = assay: Annexin V staining; format: cell-based, human; details: SAHA 5 µM, quercetin 100 µM, QMJ-2 100 µM, QMJ-5 50 µM, normal control 21.30%
Procedure: Mechanism of cell death induced by synthesized analogues was determined using annexin V staining. In brief, as per annexin V flow cytometry kit protocol (#MCH100105), 1 × 10^6 cells were seeded in a cell culture dish and after overnight adherence, were incubated with test compounds. Cells were then detached by trypsinization, centrifuged, and washed with PBS. Cell suspension (100 µl) was mixed with Muse annexin V reagent (100 µl) and incubated for 20 min at room temperature. The stained cells were quantitatively analyzed for live, early, and late apoptosis using Muse cell analyzer (#0500-3115 Merck Millipore).

[5] = test system: caspase 3/7 in HCT116 cells; assay: Caspase 3/7 activation assay; format: cell-based, human; details: SAHA 5 µM, quercetin 100 µM, QMJ-2 100 µM, QMJ-5 50 µM, normal control 24.60%
Procedure: The downstream signaling pathway of apoptosis was determined using the caspase 3/7 activation assay. In brief, as per the caspase 3/7 activation kit protocol (#MCH100108), 1 × 10^6 cells were seeded in the cell culture dish and after overnight adherence, were incubated with the test compounds. The cells were detached by trypsinization, centrifuged, and washed with PBS. Cell suspension (50 µl) was mixed with the caspase 3/7 antibody reagent (5 µl) and incubated at 37°C temperature for 30 min. 7-AAD (7-amino-actinomycin D) working solution (150 µl) was added, and stained cells were then analyzed in Muse Cell Analyzer (#0500-3115 Merck Millipore).

acetyl histone H3K9 = assay: Western blotting, acetyl histone H3K9 expression; format: cell-based, human; details: HCT116 cells, 24 h, compared to normal control
Procedure: as §3, with “Syngene). The protein band densities were estimated using the software ImageJ (version 1.46r, NIH, Bethesda, MD, USA).” for “Syngene).”

Structure (SMILES)	IC50 (VERO cells)	IC50 (HCT116 cells [1])	IC50 [2]	other results
Cc1ccc2oc(-c3ccc(N(C)C)cc3)c(O)c(=O)c2c1 [QMJ-3, 2-[4-(Dimethylamino)phenyl]-3-hydroxy-6-methyl-4H-1-benzopyran-4-one]	80.1 ± 3.7 µM	70.3 ± 4.1 µM	1124 ± 6.2 µM	
O=c1[nH]cc(F)c(=O)[nH]1 [5-FU, 5-Fluorouracil, reference compound]				ACF/5 cm^2 (DMH-induced colon cancer; 21 days treatment, quercetin, QMJ-2, QMJ-5 100 mg/kg p.o., DMH control 25 ± 2.1, mean ± SEM of six animals): 10 ± 1.3 /5 cm^2 and 10 ± 1.3^a /5 cm^2; colon weight/length ratio (DMH-induced colon cancer; compared with DMH control, others 100 mg/kg p.o., 21 days): significantly (p < 0.05) reduced; Adenocarcinoma (DMH-induced colon cancer; count in colon, 21 days treatment, quercetin, QMJ-2, QMJ-5 100 mg/kg p.o., DMH control 17 ± 1.7, mean ± SEM of six animals): 8 ± 1.1^a
O=C(CCCCCCC(=O)Nc1ccccc1)NO [SAHA, reference compound]				percentage of cells in G2/M phase (HCT116 cells [3]): 37.5%; HDAC8 expression (HDAC8): significant reduction; expression of p21^Waf1/Cip1 (p21^Waf1/Cip1): increased; percentage of cells undergoing late apoptosis (Late Apop./Dead, annexin V) (HCT116 cells [4]): 27.65%; percentage of apoptotic cells (Apoptotic/Dead, caspase 3/7) [5]: 56.30%; expression of acetylated histone H3K9 (acetyl histone H3K9): significant increase
CN(C)c1ccc(-c2oc3ccccc3c(=O)c2O)cc1 [QMJ-1, 2-[4(Dimethylamino)phenyl]-3-hydroxy-4H-1-benzopyran-4-one]	186 ± 4.9 µM	102 ± 1.8 µM	1023 ± 5.2 µM	
COc1ccc2c(=O)c(O)c(-c3ccc(C)cc3)oc2c1 [QMJ-6, 3-Hydroxy-7-methoxy-2-(4-methylphenyl)-4H-1-benzopyran-4-one]	153 ± 2.3 µM	94 ± 2.1 µM	984.2 ± 2.5 µM	
Cc1ccc(-c2oc3ccc(C)cc3c(=O)c2O)cc1 [QMJ-4, 3-Hydroxy-6-methyl-2-(4-methylphenyl)-4H-1-benzopyran-4-one]	> 400 µM	> 400 µM	1011 ± 3.4 µM	
